Data published in the supplement of paper PMC10307832.

What was measured:
Assay in all cases: relative viability (nuclei count vs DMSO), 5 days (fraction); higher = more cells survive
VX-11e + Navitoclax = compound: CC1=CN=C(N=C1C2=CNC(=C2)C(=O)N[C@H](CO)C3=CC(=CC=C3)Cl)NC4=C(C=C(C=C4)F)Cl [VX-11e] + CC1(C)CCC(c2ccc(Cl)cc2)=C(CN2CCN(c3ccc(C(=O)NS(=O)(=O)c4ccc(N[C@H](CCN5CCOCC5)CSc5ccccc5)c(S(=O)(=O)C(F)(F)F)c4)cc3)CC2)C1 [Navitoclax] (partner 0.5 µM)
Outline: (§1)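 For relative viability, nuclei counts in treated wells were divided by those in vehicle wells. Lung cancer cell lines had been pin-tool dosed in 1536-well plates the day after seeding and cultured for 5 days, then fixed and stained in one step (final 0.05% Triton X-100, 1% formaldehyde, 1 ug/ml Hoechst) and imaged at 4×. Doses were one drug alone or a fixed anchor-drug dose plus five library-drug doses (not always all listed) in √10 steps, and values are duplicate-plate medians.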

VX-11e + Crizotinib = compound: CC1=CN=C(N=C1C2=CNC(=C2)C(=O)N[C@H](CO)C3=CC(=CC=C3)Cl)NC4=C(C=C(C=C4)F)Cl [VX-11e] + C[C@@H](Oc1cc(-c2cnn(C3CCNCC3)c2)cnc1N)c1c(Cl)ccc(F)c1Cl [Crizotinib] (partner 1 µM)
Outline: as §1

VX-11e + Phenformin = compound: CC1=CN=C(N=C1C2=CNC(=C2)C(=O)N[C@H](CO)C3=CC(=CC=C3)Cl)NC4=C(C=C(C=C4)F)Cl [VX-11e] + N=C(N)NC(=N)NCCc1ccccc1 [Phenformin] (partner 250 µM)
Outline: as §1

VX-11e + Decitabine = compound: CC1=CN=C(N=C1C2=CNC(=C2)C(=O)N[C@H](CO)C3=CC(=CC=C3)Cl)NC4=C(C=C(C=C4)F)Cl [VX-11e] + Nc1ncn([C@H]2C[C@H](O)[C@@H](CO)O2)c(=O)n1 [Decitabine] (partner 2 µM)
Outline: as §1

Cell Line	relative viability (VX-11e + Navitoclax; first compound 0.04 µM)	relative viability (VX-11e + Navitoclax; first compound 0.1265 µM)	relative viability (VX-11e + Navitoclax; first compound 0.4 µM)	relative viability (VX-11e + Navitoclax; first compound 1.265 µM)	relative viability (VX-11e + Navitoclax; first compound 4 µM)	relative viability (VX-11e + Crizotinib; first compound 0.04 µM)	relative viability (VX-11e + Crizotinib; first compound 0.1265 µM)	relative viability (VX-11e + Crizotinib; first compound 0.4 µM)	relative viability (VX-11e + Crizotinib; first compound 1.265 µM)	relative viability (VX-11e + Crizotinib; first compound 4 µM)	relative viability (VX-11e + Phenformin; first compound 0.04 µM)	relative viability (VX-11e + Phenformin; first compound 0.1265 µM)	relative viability (VX-11e + Phenformin; first compound 0.4 µM)	relative viability (VX-11e + Phenformin; first compound 1.265 µM)	relative viability (VX-11e + Phenformin; first compound 4 µM)	relative viability (VX-11e + Decitabine; first compound 0.04 µM)	relative viability (VX-11e + Decitabine; first compound 0.1265 µM)	relative viability (VX-11e + Decitabine; first compound 0.4 µM)	relative viability (VX-11e + Decitabine; first compound 1.265 µM)	relative viability (VX-11e + Decitabine; first compound 4 µM)
NCI-H1734	0.787	0.796	0.685	0.652	0.245	0.67	0.584	0.652	0.606	0.296	0.369	0.391	0.323	0.231	0.209	0.482	0.523	0.428	0.538	0.368
NCI-H1755	1.06	0.956	0.972	0.956	0.558	0.905	0.849	0.845	0.873	0.491	0.694	0.542	0.248	0.594	0.51	0.7	0.736	0.665	0.716	0.661
NCI-H1792	0.614	0.639	0.672	0.646	0.588	0.956	0.954	0.915	0.982	0.52	0.151	0.386	0.137	0.0901	0.038		0.493		0.619	0.328
NCI-H1915	0.826	0.761	0.787	0.682	0.546	0.945	0.82	0.919	0.788	0.548	0.401	0.343	0.291	0.298	0.235	0.246	0.264	0.25	0.264	0.238
NCI-H1944	0.947	1.03	0.951	0.944	0.504	1.17	1.02	0.942	0.905	0.583	0.194	0.193		0.218	0.168	0.461	0.509	0.412	0.41	0.374
NCI-H1975	1.03	1.09	1.13	1.06	0.612	0.972	0.962	0.95	0.963	0.407	0.443	0.362	0.261	0.393	0.199	0.42	0.388	0.336	0.364	0.226
NCI-H1993		1.03		0.804	0.612		0.804		0.752	0.647	0.547	0.49	0.484	0.517	0.518		0.644	0.674	0.659	0.509
NCI-H2009	1.17	1.14	1.2	0.938	0.289	1.07	1.04	0.933	0.565	0.364	0.575	0.535	0.481	0.251	0.178	0.377	0.394	0.369	0.293	0.244
NCI-H2023	1.02	0.879	0.966	1	0.405	0.633	0.606	0.519	0.427	0.338	0.393	0.404	0.291	0.322	0.191	0.207	0.222	0.222	0.256	0.228
NCI-H2085	1.17	1.02	1.1	0.919	0.719	0.88	0.817	0.746	0.714	0.619	0.6	0.707	0.641	0.449	0.425	0.658	0.542	0.525	0.539	0.553
NCI-H2087	0.983	1	0.999	0.8	0.257	1.03	0.809	0.944	1.07	0.502	0.459	0.462		0.393	0.181	0.318	0.295		0.182	0.158
NCI-H2126		0.861	0.877	0.785	0.638		1.03	0.987	1.02	0.901	0.48	0.512		0.567	0.467	0.561	0.608	0.558	0.614	0.573
NCI-H2170	0.576	0.528	0.496	0.583	0.404	1.18	1.04	1.23	1.03	1.1	0.41	0.431	0.21	0.445	0.39	0.477	0.442	0.516	0.541	0.547
NCI-H2347	0.932	0.818	0.683	0.352	0.213	0.677	0.831	0.605	0.517	0.406	0.462	0.488	0.206	0.43	0.211	0.604	0.554	0.504	0.534	0.661
NCI-H2405	1.03	0.921		0.592	0.126	0.892	0.805	0.821	0.766	0.505	0.393	0.403	0.233	0.321	0.169	0.761	0.733	0.305	0.776	0.443
NCI-H3122	0.969	1.02	0.989	0.995	0.597	0.302	0.288	0.275	0.35	0.226	0.408	0.358		0.335	0.254	0.418	0.484	0.335	0.39	0.209
